Results on 124 compounds are retold here after a melting point compilation (Tetko et al.).

By melting point is commonly meant the temperature of the solid-liquid transition.

In turn, `O=c1[nH]c(-c2cccnc2)cs1` gave a melting point of 225 to 227 °C.

In the case of `CC(=O)NCCNC(=O)c1ccccc1N`, the melting point was in the range of 128 to 130 °C.

`O=C(CCl)NCc1ccccc1S(=O)(=O)N1CCOCC1` came in with a melting point of 123 to 125 °C.

`CC(=O)Nc1nnc(S)s1` yielded a melting point of 267 to 269 °C.

Compound `Cc1cc(-c2csc(N)n2)c(C)s1` displayed a melting point of 72 to 74 °C.

Take `Nc1nc(-c2c(F)cccc2F)co1`: the melting point fell in the range of 139 to 141 °C.

On to `O=C(O)c1ccccc1NS(=O)(=O)c1ccc(Cl)c(Cl)c1`, for which the melting point lay in the range of 143 to 147 °C.

As to `Nc1nc2ccccc2n1-c1ccc(F)cc1`, the melting point is 164 to 166 °C.

Turning to `CCc1ccc(CC)c(-c2csc(N)n2)c1`, the melting point was in the range of 66 to 68 °C.

`COc1ccc(OC(C)C(=O)O)cc1` (centres undefined) had a melting point of 91 to 93 °C.

Turning to `COc1ccnc(N2CCNCC2)c1`, the melting point fell in the range of 36 to 38 °C.

For the compound `Cc1cc(S(=O)(=O)Cl)ccc1OCC(=O)O`, the melting point lay in the range of 127 to 129 °C.

The compound `O=C(CCCc1cccs1)Nc1cccc(C(=O)O)c1` gave a melting point of 198 to 200 °C.

Regarding `Cc1cc(C=O)ccc1-n1cncn1`, the melting point is 104 to 106 °C.

`Fc1ccc2c(Cl)ncnc2c1` yielded a melting point of 90 to 92 °C.

The compound `CCOC(=O)c1cnn2c(O)cc(CCl)nc12` showed a melting point of 215 to 217 °C.

The compound `NCC(=O)Nc1cccc2ncccc12` registered a melting point of 128 to 130 °C.

`O=C(O)c1ccccc1SC1CCS(=O)(=O)C1` (centres undefined) returned a melting point of 165 to 167 °C.

`Nc1cc([N+](=O)[O-])ccc1C(=O)O` came in with a melting point of 257 to 259 °C.

Consider `COc1ccc(NC(=O)C(=O)O)cc1`, for which the melting point is 206 to 208 °C.

For `O=S1(=O)C=CC(N=C=S)C1` (centres undefined), the melting point fell in the range of 61 to 63 °C.

As for `O=C(O)c1cnc2n1CCCC2`, the melting point was in the range of 219 to 221 °C.

`Cc1ccc(-n2cc(SC(=O)N(C)C)cn2)cc1` gave a melting point of 95 to 97 °C.

The compound `O=C(O)c1occc1COc1ccccc1` showed a melting point of 129 to 131 °C.

In the case of `O=C(Nc1sc2ccccc2c1Cl)OCC(F)(F)F`, the melting point was 95 to 97 °C.

On to `CN(C)c1cccc(N)n1`, for which the melting point lay in the range of 41 to 43 °C.

On to `COc1ccc(S(=O)(=O)Cl)c(C)c1C`, for which the melting point was 84 to 86 °C.

`ClCc1cnc(Cl)s1` displayed a melting point of 31 to 33 °C.

`O=C(O)/C=C/c1csc2ccccc12` had a melting point of 225 to 227 °C.

The compound `COc1ccc(C)cc1NC(=O)CNC(=O)CCl` had a melting point of 121 to 123 °C.

The compound `CC(C)c1nc(C(=O)O)cs1` had a melting point of 56 to 58 °C.

Take `NS(=O)(=O)c1cncc(Br)c1`: the melting point lay in the range of 199 to 201 °C.

The compound `Clc1sc2ccccc2c1Cl` returned a melting point of 53 to 55 °C.

For the compound `CC(Oc1ccc(C(=O)O)cn1)c1ccccc1` (centres undefined), the melting point fell in the range of 113 to 115 °C.

Compound `CC(C)(C)OC(=O)NC(CO)CO` had a melting point of 83 to 85 °C.

In the case of `O=C(O)C1CC1c1cccc(F)c1` (centres undefined), the melting point fell in the range of 78 to 80 °C.

The compound `CCN(CC)S(=O)(=O)c1cc(N)ccc1C` returned a melting point of 166 to 169 °C.

Turning to `CNC(=O)CNc1cccc(OC)c1`, the melting point is 78 to 80 °C.

On to `CC(O)(C(=O)O)c1ccc(F)cc1` (centres undefined), for which the melting point was 89 to 91 °C.

`O=C1C2C3C=CC(C3)C2C(=O)N1c1cccc(Br)c1` (centres undefined) had a melting point of 192 to 194 °C.

Regarding `COc1ccc(-c2n[nH]c(=O)c3ccccc23)cc1`, the melting point lay within 238 to 240 °C.

The compound `C=CCN1C(=O)C(=O)N(CC(=O)O)C1=O` had a melting point of 143 to 145 °C.

On to `O=C(O)c1c[nH]cc1C1CC1`, for which the melting point was 150 to 152 °C.

For the compound `CC(Cl)C(=O)NC(c1ccccc1)c1ccccc1` (centres undefined), the melting point is 130 to 139 °C.

Compound `O=C(O)c1ccc(Cl)c(N2CCNC2=O)c1` yielded a melting point of 290 to 292 °C.

In turn, `CCC(=O)NN` returned a melting point of 24 to 26 °C.

Turning to `CCOC(=O)C(O)c1ncc(Cl)n1C` (centres undefined), the melting point is 85 to 87 °C.

In the case of `O=C(NC(Cc1c[nH]c2ccccc12)C(=O)O)c1ccc(F)cc1` (centres undefined), the melting point is 95 to 98 °C.

In the case of `Cc1nonc1N`, the melting point was 56 to 58 °C.

`Cc1ccccc1-n1c(C)nnc1S` came in with a melting point of 201 to 203 °C.

In turn, `CN1C(=O)CCC(C(=O)O)C1c1cccc(Cl)c1` (centres undefined) came in with a melting point of 182 to 184 °C.

`Cc1oc(N)c(C#N)c1C` yielded a melting point of 163 to 169 °C.

Consider `Nc1ccc(SCCCO)cc1`, for which the melting point is 62 to 64 °C.

For the compound `CN(C)c1ccc(S(=O)(=O)N(C)C)cc1N`, the melting point was in the range of 143 to 145 °C.

The compound `O=C(O)c1cccn1Cc1ccccn1` gave a melting point of 172 to 174 °C.

`CCC(CC)NS(=O)(=O)c1ccc(Cl)nc1` had a melting point of 91 to 93 °C.

`COc1ccc(NC(=O)c2ccccc2N)c(OC)c1`: the melting point was in the range of 154 to 156 °C.

`O=S(=O)(Cl)c1cc(Cl)c(Br)s1` yielded a melting point of 61 to 63 °C.

`Nc1ccc(-c2nc3ccccc3s2)cn1` returned a melting point of 187 to 189 °C.

Compound `COC(=O)NC1CCC(O)CC1` (centres undefined) gave a melting point of 139 to 141 °C.

`NC(=O)c1ccc(C=O)cc1` gave a melting point of 100 to 102 °C.

With `O=C(O)c1ccc(N2CCCS2(=O)=O)cc1`, the melting point was in the range of 247 to 249 °C.

On to `Cc1nc(S)nc(C)c1CCC(=O)O`, for which the melting point was 154 to 156 °C.

`O=C(O)c1c2c(nc3ccccc13)C(=Cc1cccc([N+](=O)[O-])c1)CCC2` yielded a melting point of 299 to 301 °C.

`Nc1ccc(C(=O)NCc2ccccn2)c(Cl)c1`: the melting point fell in the range of 159 to 161 °C.

Compound `O=C(O)c1nc(OCC2CC2)c2ccccc2n1` yielded a melting point of 109 to 111 °C.

The compound `NC(=O)c1c[nH]c(C(=O)O)c1` registered a melting point of 264 to 266 °C.

In turn, `NC1CCCCC1O` (centres undefined) had a melting point of 162 to 164 °C.

`COc1ccc(-n2c(C)cc(C(=O)CCl)c2C)cc1` gave a melting point of 91 to 95 °C.

`COc1ccccc1NC(=O)C(Br)C(C)C` (centres undefined) gave a melting point of 107 to 109 °C.

The compound `O=C1CC2(CCCCC2)CC(=O)O1` had a melting point of 210 to 214 °C.

Turning to `CN(C)c1ccc(C#N)cn1`, the melting point is 64 to 66 °C.

Take `O=C(O)c1ccc(=O)n(Cc2ccccc2)n1`: the melting point was 192 to 195 °C.

Regarding `CC(C)(CO)N1C(=O)c2ccccc2C1=O`, the melting point is 65 to 67 °C.

`CCN(CC)S(=O)(=O)c1cccc(-c2nnc(S)o2)c1`: the melting point was in the range of 95 to 101 °C.

`CCN(CC)Cc1csc(N)n1` showed a melting point of 64 to 66 °C.

The compound `Clc1ccc(CN2CCNCC2)cn1` yielded a melting point of 89 to 91 °C.

`CC(NC(=O)CCC(=O)O)C(=O)c1ccccc1` (centres undefined) returned a melting point of 96 to 98 °C.

For the compound `COC(=O)c1cc(CBr)cc(C(=O)OC)c1`, the melting point was 139 to 141 °C.

`CCn1c(N)cc(=O)[nH]c1=O` gave a melting point of 125 to 127 °C.

As to `Nc1ccc(-c2nnc(O)o2)cc1`, the melting point was in the range of 166 to 168 °C.

For the compound `Nc1c([N+](=O)[O-])cc(F)c(F)c1Br`, the melting point fell in the range of 104 to 106 °C.

In turn, `Nc1nc2ccccc2o1` came in with a melting point of 124 to 126 °C.

`O=S(=O)(c1ccc2c(c1)CCCN2)N1CCCC1` displayed a melting point of 130 to 132 °C.

As to `O=C1Nc2cc3c(cc2C1=O)OCCCO3`, the melting point was 230 to 232 °C.

With `NC(=O)Nc1ccccc1[N+](=O)[O-]`, the melting point was 186 to 188 °C.

`O=C(O)C1=COCCO1` displayed a melting point of 164 to 166 °C.

Turning to `O=C(O)c1c(F)ccc([N+](=O)[O-])c1F`, the melting point lay in the range of 92 to 96 °C.

Turning to `N#Cc1ccc(NC2CC2)cc1`, the melting point lay in the range of 79 to 81 °C.

In turn, `O=Cc1cnn(-c2ccccc2)n1` had a melting point of 66 to 68 °C.

Regarding `O=C(O)c1cc(O)cs1`, the melting point lay in the range of 206 to 208 °C.

With `CN1C(=O)C(C(N)=NO)=C(N)C12CCCC2`, the melting point lay in the range of 210 to 212 °C.

`N#CCOc1cc(F)ccc1N` gave a melting point of 59 to 61 °C.

`NS(=O)(=O)c1c(Cl)cccc1C(F)(F)F` yielded a melting point of 155 to 157 °C.

Take `CC1(C)SC(=O)NC1=O`: the melting point lay in the range of 77 to 79 °C.

Consider `Cc1oc(-c2cccs2)nc1CCl`, for which the melting point lay within 65 to 67 °C.

`Nc1cc(S(=O)(=O)N2CCOCC2)ccc1O` yielded a melting point of 199 to 201 °C.

Consider `COC(=O)c1sc(C)cc1O`, for which the melting point is 51 to 53 °C.

Compound `Cc1cccn2c(=O)cc(CCl)nc12` registered a melting point of 110 to 112 °C.

In turn, `CC(=O)c1cccc(OCCCC(=O)O)c1` displayed a melting point of 90 to 92 °C.

As for `COc1ccccc1-c1nnc(S)n1N`, the melting point lay within 210 to 220 °C.

Turning to `CCCOc1ccc(Cl)cc1C(=O)O`, the melting point lay in the range of 59 to 61 °C.

For the compound `NC1CCN(C(=O)C2CC2)CC1`, the melting point was in the range of 53 to 55 °C.

Compound `O=C(O)c1ccc(Oc2cccc(F)c2[N+](=O)[O-])c(Cl)c1` displayed a melting point of 169 to 171 °C.

On to `Nc1nnc(-c2cccc(Br)c2)o1`, for which the melting point was 209 to 211 °C.

Regarding `N#Cc1cnn2cc(C=O)cnc12`, the melting point was 222 to 224 °C.

Compound `COc1cc(C=O)ccc1[N+](=O)[O-]` had a melting point of 89 to 91 °C.

For the compound `COc1ccc(NC(=O)/C=N/O)cc1`, the melting point lay within 180 to 182 °C.

In turn, `COc1cc(CC(=O)O)ccc1C` yielded a melting point of 74 to 76 °C.

`O=C(Nc1ccccc1)c1ccc(Cl)nn1` registered a melting point of 213 to 215 °C.

In the case of `NC(=O)Cn1c(S)nnc1-c1ccco1`, the melting point was in the range of 313 to 315 °C.

`CCCC(C(=O)O)N(C)C` (centres undefined): the melting point lay within 179 to 181 °C.

Compound `Cc1ccc(C)c2[nH]c(C(=O)O)cc12` returned a melting point of 206 to 208 °C.

With `CSc1cccc(NC2CCN(C)CC2)c1`, the melting point was 76 to 78 °C.

`Nc1ccccc1N1CCN(CCc2ccncc2)CC1`: the melting point fell in the range of 119 to 121 °C.

For `Clc1csc(Cl)n1`, the melting point lay in the range of 42 to 46 °C.

As for `Nc1cccc(-c2cn[nH]c2)c1`, the melting point lay within 189 to 191 °C.

Regarding `Nc1[nH]ncc1[N+](=O)[O-]`, the melting point lay in the range of 237 to 239 °C.

`NC1=NNC(=O)C1c1ccccc1` (centres undefined): the melting point is 249 to 251 °C.

`Nc1ncc([N+](=O)[O-])cc1C(=O)O` gave a melting point of 239 to 241 °C.

The compound `Cn1c(NN)nc2ccccc2c1=O` came in with a melting point of 150 to 152 °C.

`c1ccc(-c2ncc[nH]2)nc1` had a melting point of 133 to 135 °C.

Take `Cc1cc(-n2nc(C)cc2N)nc(C)n1`: the melting point is 104 to 106 °C.

In turn, `COc1ccc(CNC(=O)n2ccnc2)cc1OC` displayed a melting point of 136 to 138 °C.
